Source: ChEMBL document CHEMBL4616596, “Structural insights into the active site of poly(ADP-ribose) glycohydrolase using docking modes of 6-hydroxy-3H-xanthen-3-one derivative inhibitors” (Bioorg Med Chem, 2020)

Target: Poly(ADP-ribose) glycohydrolase (Homo sapiens, UniProt Q86W56)
Assay: Inhibition of recombinant human PARG assessed as mono(ADP-R) release using PAR as substrate measured after 15 mins by HPLC analysis

Sequence of Poly(ADP-ribose) glycohydrolase (Q86W56 whole entry): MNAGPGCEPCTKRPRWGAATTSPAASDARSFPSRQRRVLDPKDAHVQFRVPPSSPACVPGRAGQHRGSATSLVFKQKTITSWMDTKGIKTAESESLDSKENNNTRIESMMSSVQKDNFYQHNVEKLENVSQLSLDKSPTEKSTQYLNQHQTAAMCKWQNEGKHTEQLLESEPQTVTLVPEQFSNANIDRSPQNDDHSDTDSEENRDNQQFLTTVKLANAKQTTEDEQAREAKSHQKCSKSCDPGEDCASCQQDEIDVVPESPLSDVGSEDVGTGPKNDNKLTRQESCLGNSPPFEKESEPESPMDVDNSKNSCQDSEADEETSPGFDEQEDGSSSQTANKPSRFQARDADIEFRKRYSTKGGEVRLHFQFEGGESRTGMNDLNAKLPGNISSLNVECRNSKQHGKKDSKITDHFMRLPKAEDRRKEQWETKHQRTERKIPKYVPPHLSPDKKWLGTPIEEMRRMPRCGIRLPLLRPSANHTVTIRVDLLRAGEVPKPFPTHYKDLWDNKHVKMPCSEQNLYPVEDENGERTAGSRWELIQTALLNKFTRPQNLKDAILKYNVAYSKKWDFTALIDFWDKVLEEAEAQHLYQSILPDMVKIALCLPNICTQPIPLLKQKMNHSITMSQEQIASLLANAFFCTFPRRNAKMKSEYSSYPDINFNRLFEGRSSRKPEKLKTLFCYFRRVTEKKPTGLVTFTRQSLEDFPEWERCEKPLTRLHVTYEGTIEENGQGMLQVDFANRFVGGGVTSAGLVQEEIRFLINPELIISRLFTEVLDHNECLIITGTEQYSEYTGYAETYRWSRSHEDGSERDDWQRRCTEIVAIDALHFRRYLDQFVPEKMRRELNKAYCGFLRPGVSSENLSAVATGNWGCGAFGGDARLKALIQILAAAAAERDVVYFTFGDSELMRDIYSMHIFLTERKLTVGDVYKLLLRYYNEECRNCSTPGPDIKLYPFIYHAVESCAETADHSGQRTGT

Compound | IC50
O=C(O)c1c(Cl)c(Cl)c(Cl)c(Cl)c1-c1c2cc(Br)c(=O)c(Br)c-2oc2c(Br)c(O)c(Br)cc12 | 106 µM
O=C(O)c1c(Cl)c(Cl)c(Cl)c(Cl)c1-c1c2cc(I)c(=O)c(I)c-2oc2c(I)c(O)c(I)cc12 [ROSE BENGAL FREE ACID] | 29.7 µM
O=C(O)c1ccccc1-c1c2cc(Br)c(=O)c(Br)c-2oc2c(Br)c(O)c(Br)cc12 | > 300 µM
O=C(O)c1ccccc1-c1c2cc(I)c(=O)c(I)c-2oc2c(I)c(O)c(I)cc12 | 120 µM
O=C(O)c1c(Cl)ccc(Cl)c1-c1c2cc(I)c(=O)c(I)c-2oc2c(I)c(O)c(I)cc12 | 61.4 µM
